According to patent publication EP3345917A1, “ANTIPROTOZOAL COMPOUNDS” (Bacoba AG, priority 2017, dated 2018):
pIC50: −log10 of the molar value. Starred links: 1 amine or outer side, 2 acyl side, 3 side chain; linkers in the order of their positions; H or OH if unused. Non-standard residues stand in square brackets, D forms with d. Residues, ends and D or L forms follow the SMILES beside them. *: point of attachment. ACHC(1S,2R) = O=C([C@H]1CCCC[C@H]1N[*:1])[*:2]; Hexenoyl(2E,4S-Me) = CC[C@H](C)/C=C/C(=O)*; Leu(3R-OH) = CC(C)[C@@H](O)[C@H](N)C(=O)O; NH((S)CH(Me)CH2NMe2) = C[C@@H](CN(C)C)N*; Gly(octyl) = CCCCCCCC[C@H](N)C(=O)O; Oxazole4CO(2-Me) = Cc1nc(C(=O)*)co1; X16 = COc1ccc2cc(C(=O)*)c(=O)oc2c1; Nle = CCCC[C@H](N)C(=O)O; Hexanoyl = CCCCCC(=O)*; Aib = CC(C)(N)C(=O)O; Bz = O=C(c1ccccc1)*; βAla = NCCC(=O)O; NHcPr = C1CC1N*

Columns and labels:
Plasmodium falciparum = assay: 3H-hypoxanthine incorporation assay against Plasmodium falciparum; assay type: cell-based; settings: In vitro inhibition, read-out: P.falc NF5
Description: (§1) Tests were done in triplicate.
IC50 values were calculated by linear interpolation.

[1] = Cytotoxicity assay on L6-cells (Alamar Blue); settings: rat, Cytotox L6, Cytotoxicity against rat myoblast cells (L6)
[2] = test system: Trypanosoma brucei rhodesiense (STIB 900 strain); assay: Alamar Blue assay against Trypanosoma brucei rhodesiense grown in axenic medium; assay type: cell-based; settings: In vitro inhibition, read-out: T.b.rhod.
Description: as §1
Trypanosoma brucei rhodesiense (STIB 900) were grown in axenic medium as described by Baltz et al. (1985) The samples were tested using the Alamar Blue assay protocol (Baltz T et al. EMBO J 1985; 4:1273-1277) to determine the 50% inhibitory concentration (IC50). […] Melarsoprol (Arsobal®, Sanofi-Aventis, Switzerland) was used as a reference drug (IC50= 0.03 ± 0.01 µM). Its purity was over 95 %, as was certified by the supplier. The IC50 values were calculated by using Softmax Pro software (Molecular Devices Cooperation, Sunnyvale, CA).

[3] = test system: Trypanosoma cruzi trypomastigote forms (Tulahuen strain); assay: Intracellular Trypanosoma cruzi assay in L6-cells, beta-galactosidase/CPRG readout; assay type: cell-based; settings: In vitro inhibition, read-out: T.cruzi.
Description: as §1
Trypanosoma cruzi trypomastigote forms (Tulahuen strain C2C4 containing β-galactosidase (Lac Z) gene) were cultured as described by Buckner et al. (Buckner FS et al. Antimicrob Agents Ch1996; 40: 2592-2597) in rat myoblast cells (L6-cells). […] After incubation, the substrate chlorophenyl red β-D-galactopyranoside agent CPRG/Nonident was added to all wells and a color change was developed within 2 to 6 h. The plates were read photometrically at 540 nm (Molecular Devices). Data were evaluated and IC50 values calculated using Softmax Pro software (Molecular Devices).

[4] = test system: Axenically grown Leishmania donovani amastigotes (strain MHOM/ET/67/L82); assay: Axenic Leishmania donovani amastigote resazurin assay; assay type: cell-based; settings: In vitro inhibition, read-out: L.don. ax
Description: as §1
Axenically grown Leishmania donovani amastigotes (strain MHOM/ET/67/L82) were grown and tests were done as previously described using the resazurin assay (Räz B et al. Acta Tropica 1997, 68:139-147). The plates were developed for 2-4 hours and read on a Spectramax Gemini XS micro plate fluorometer (Molecular Devices Cooperation) using an excitation wavelength of 536 nm and emission wavelength of 588 nm. Fluorescence development was measured and expressed as percentage of the negative control. […] Data were transferred to the graphic programme Softmax Pro (Molecular Devices), with which IC50 values were calculated.

For `CCCCCCCC[C@H](NC(=O)[C@@H]1CCCN1C(=O)CCCCC)C(=O)N[C@H](C(=O)N[C@@H](CC(C)C)C(=O)NC(C)(C)C(=O)NC(C)(C)C(=O)NCCC(=O)N[C@@H](C)CN(C)C)[C@@H](C)O` [Compound 5596, (2S)-N-[(1S,2R)-1-{[(1S)-1-{[1-({1-[(2-{[(2S)-1-(dimethylamino)propan-2-yl]carbamoyl}ethyl)carbamoyl]-1-methylethyl}carbamoyl)-1-methylethyl]carbamoyl}-3-methylbutyl]carbamoyl}-2-hydroxypropyl]-2-{[(2S)-1-hexanoylpyrrolidin-2-yl]formamido}decanamide] (Hexanoyl-P[Gly(octyl)]TL[Aib][Aib][βAla]-{NH((S)CH(Me)CH2NMe2)}), the pIC50 (Plasmodium falciparum) was 5.91, the IC50 at 70 h [1] was 5030 nM and the pIC50 [2] was 6.18. For the same compound, the pIC50 [3] was 5.11 and the pIC50 [4] was 6.10.

In the case of `CCCCCCCC[C@H](NC(=O)c1coc(C)n1)C(=O)N[C@H](C(=O)NC(C)(C)C(=O)N[C@@H](CC(C)C)C(=O)N[C@@H](CC(C)C)C(=O)NC(C)(C)C(=O)NC(C)(C)C(=O)NCCC(=O)N[C@@H](C)CN(C)C)[C@@H](C)O` [Compound 5640, (2S)-N-[(1S,2R)-1-[(1-{[(1S)-1-{[(1S)-1-{[1-({1-[(2-{[(2S)-1-(dimethylamino)propan-2-yl]carbamoyl}ethyl)carbamoyl]-1-methylethyl}carbamoyl)-1-methylethyl]carbamoyl}-3-methylbutyl]carbamoyl}-3-methylbutyl]carbamoyl}-1-methylethyl)carbamoyl]-2-hydroxypropyl]-2-[(2-methyl-1,3-oxazol-4-yl)formamido]decanamide] ({Oxazole4CO(2-Me)}-[Gly(octyl)]T[Aib]LL[Aib][Aib][βAla]-{NH((S)CH(Me)CH2NMe2)}), the pIC50 (Plasmodium falciparum) was 7.07, the IC50 at 70 h [1] was 4440 nM and the pIC50 [2] was 8.28. For the same compound, the pIC50 [3] was 5.43 and the pIC50 [4] was 6.71.

Compound `CCCCCCCC[C@H](NC(=O)[C@@H]1CCCN1C(=O)CCCCC)C(=O)N[C@H](C(=O)NC(C)(C)C(=O)NC(C)(C)C(=O)NCCC(=O)N[C@@H](C)CN(C)C)[C@@H](C)O` [Compound 5594, (2S)-N-[(1S)-1-[[(1S,2R)-1-[[2-[[2-[[3-[[(1S)-2-(dimethylamino)-1-methyl-ethyl]amino]-3-oxo-propyl]amino]-1,1-dimethyl-2-oxo-ethyl]amino]-1,1-dimethyl-2-oxo-ethyl]carbamoyl]-2-hydroxy-propyl]carbamoyl]nonyl]-1-hexanoyl-pyrrolidine-2-carboxamide] (Hexanoyl-P[Gly(octyl)]T[Aib][Aib][βAla]-{NH((S)CH(Me)CH2NMe2)}) has a pIC50 (Plasmodium falciparum) of 5.63, an IC50 at 70 h [1] of 6020 nM and a pIC50 [2] of 5.65. It also gave a pIC50 [3] of 5.06 and a pIC50 [4] of 6.24.

Compound `CCCC[C@H](NC(=O)[C@@H]1CCCN1C(=O)/C=C/[C@@H](C)CC)C(=O)N[C@H](C(=O)NC(C)(C)C(=O)N[C@@H](CC(C)C)C(=O)N[C@@H](CC(C)C)C(=O)NC(C)(C)C(=O)NC(C)(C)C(=O)NCCC(=O)N[C@@H](C)CN(C)C)[C@H](O)C(C)C` [Compound 5561, (2S)-N-[(1S,2R)-1-[(1-{[(1S)-1-{[(1S)-1-{[1-({1-[(2-{[(2S)-1-(dimethylamino)propan-2-yl]carbamoyl}ethyl)carbamoyl]-1-methylethyl}carbamoyl)-1-methylethyl]carbamoyl}-3-methylbutyl]carbamoyl}-3-methylbutyl]carbamoyl}-1-methylethyl)carbamoyl]-2-hydroxy-3-methylbutyl]-2-{[(2S)-1-[(2E,4S)-4-methylhex-2-enoyl]pyrrolidin-2-yl]formamido}hexanamide] ({Hexenoyl(2E,4S-Me)}-P[Nle][Leu(3R-OH)][Aib]LL[Aib][Aib][βAla]-{NH((S)CH(Me)CH2NMe2)}) has a pIC50 (Plasmodium falciparum) of 8.35, an IC50 at 70 h [1] of 356 nM and a pIC50 [2] of 9.15. The pIC50 [3] was 6.79 and the pIC50 [4] was 8.39.

Work on `CCCCCCCC[C@H](NC(=O)[C@H]1CCCC[C@H]1NC(=O)c1ccccc1)C(=O)N[C@@H](CC(C)C)C(=O)NC(C)(C)C(=O)N[C@@H](CC(C)C)C(=O)N[C@@H](CC(C)C)C(=O)NC(C)(C)C(=O)NC(C)(C)C(=O)NCCC(=O)N[C@@H](C)CN(C)C` [Compound 5982, N-[(1R,2S)-2-{[(1S)-1-{[(1S)-1-[(1-{[(1S)-1-{[(1S)-1-{[1-({1-[(2-{[(2S)-1-(dimethylamino)propan-2-yl]carbamoyl}ethyl)carbamoyl]-1-methylethyl}carbamoyl)-1-methylethyl]carbamoyl}-3-methylbutyl]carbamoyl}-3-methylbutyl]carbamoyl}-1-methylethyl)carbamoyl]-3-methylbutyl]carbamoyl}nonyl]carbamoyl}cyclohexyl]benzamide] (Bz-[ACHC(1S,2R)][Gly(octyl)]L[Aib]LL[Aib][Aib][βAla]-{NH((S)CH(Me)CH2NMe2)}) yielded a pIC50 (Plasmodium falciparum) of 4.92, an IC50 at 70 h [1] of 573 nM and a pIC50 [2] of 4.53. For the same compound, the pIC50 [3] was 7.33 and the pIC50 [4] was 9.05.

For `CCCCCCCC[C@H](NC(=O)[C@@H]1CCCN1C(=O)CCCCC)C(=O)N[C@@H](CC(C)C)C(=O)NC(C)(C)C(=O)N[C@@H](CC(C)C)C(=O)N[C@@H](CC(C)C)C(=O)NC(C)(C)C(=O)NC(C)(C)C(=O)NCCC(=O)NC1CC1` [Compound 5645, (2S)-N-[(1S)-1-[(1-{[(1S)-1-{[(1S)-1-({1-[(1-{[2-(cyclopropylcarbamoyl)ethyl]carbamoyl}-1-methylethyl)carbamoyl]-1-methylethyl}carbamoyl)-3-methylbutyl]carbamoyl}-3-methylbutyl]carbamoyl}-1-methylethyl)carbamoyl]-3-methylbutyl]-2-{[(2S)-1-hexanoylpyrrolidin-2-yl]formamido}decanamide] (Hexanoyl-P[Gly(octyl)]L[Aib]LL[Aib][Aib][βAla]-NHcPr), the pIC50 (Plasmodium falciparum) was 7.86, the IC50 at 70 h [1] was 1230 nM and the pIC50 [2] was 6.27. The pIC50 [3] was 5.37 and the pIC50 [4] was 6.78.

With `CCCCCCCC[C@H](NC(=O)[C@@H]1CCCN1C(=O)CCCCC)C(=O)N[C@H](C(=O)N[C@@H](CC(C)C)C(=O)N[C@@H](CC(C)C)C(=O)NC(C)(C)C(=O)NC(C)(C)C(=O)NCCC(=O)N[C@@H](C)CN(C)C)[C@@H](C)O` [Compound 5598, (2S)-N-[(1S,2R)-1-{[(1S)-1-{[(1S)-1-{[1-({1-[(2-{[(2S)-1-(dimethylamino)propan-2-yl]carbamoyl}ethyl)carbamoyl]-1-methylethyl}carbamoyl)-1-methylethyl]carbamoyl}-3-methylbutyl]carbamoyl}-3-methylbutyl]carbamoyl}-2-hydroxypropyl]-2-{[(2S)-1-hexanoylpyrrolidin-2-yl]formamido}decanamide] (Hexanoyl-P[Gly(octyl)]TLL[Aib][Aib][βAla]-{NH((S)CH(Me)CH2NMe2)}) the pIC50 (Plasmodium falciparum) was 5.67, the IC50 at 70 h [1] was 3780 nM and the pIC50 [2] was 5.91. For the same compound, the pIC50 [3] was 5.18 and the pIC50 [4] was 6.26.

In the case of `CCCCCC(=O)N1CCC[C@H]1C(=O)N[C@@H](CCCCNC(=O)c1cc2ccc(OC)cc2oc1=O)C(=O)N[C@@H](CC(C)C)C(=O)NC(C)(C)C(=O)N[C@@H](CC(C)C)C(=O)N[C@@H](CC(C)C)C(=O)NC(C)(C)C(=O)NC(C)(C)C(=O)NCCC(=O)N[C@@H](C)CN(C)C` [Compound 5767, (2S)-N-[(1S)-1-[(1-{[(1S)-1-{[(1S)-1-{[1-({1-[(2-{[(2S)-1-(dimethylamino)propan-2-yl]carbamoyl}ethyl)carbamoyl]-1-methylethyl}carbamoyl)-1-methylethyl]carbamoyl}-3-methylbutyl]carbamoyl}-3-methylbutyl]carbamoyl}-1-methylethyl)carbamoyl]-3-methylbutyl]-2-{[(2S)-1-hexanoylpyrrolidin-2-yl]formamido}-6-[(7-methoxy-2-oxo-2H-chromen-3-yl)formamido]hexanamide] (Hexanoyl-PK(X16)L[Aib]LL[Aib][Aib][βAla]-{NH((S)CH(Me)CH2NMe2)}), the pIC50 (Plasmodium falciparum) was 7.67, the IC50 at 70 h [1] was 508 nM and the pIC50 [2] was 8.46. For the same compound, the pIC50 [3] was 6.94 and the pIC50 [4] was 7.75.
